EC50 data for 16 compounds are collected here from patent US9617283B2, “Bicyclic heterocycle compounds and their uses in therapy” (ASTEX THERAPEUTICS LIMITED, priority 2012, dated 2017).

pEC50: −log10 of the molar value. Counter-ions that a name gives are not always drawn. Where only a bound is given, the exact number is not on record here.

For the first assay, the system named is EVSA-T (human breast carcinoma). Briefly: Anti-proliferative activity, Alamar Blue assay, EVSA-T. The note with it: Homo sapiens, EVSA-T, 72 h, EVSA-T cell line, 72 hours, Alamar Blue; read-out: EVSA-T prolif. The format is cell-based.
Description: Anti-Proliferative Activity
The method is based on the ability of viable cells to reduce resazurin to its fluorescent product resorufin. For each proliferation assay cells are plated onto 96 well plates and allowed to recover for 16 hours prior to the addition of inhibitor compounds (in 0.1% DMSO v/v) for a further 72 hours. […] The anti-proliferative activities of compounds of the invention can be determined by measuring the ability of the compounds to inhibit growth in 3 cancer cell lines: • EVSA-T (human breast carcinoma) DSMZ cat. no.
In the case of `C[C@@H]1CN(CC(=O)N2CC(C)(C)c3ncc(Cc4ccc(F)cc4)cc32)[C@@H](CN2CC(C)(C)OCC2=O)CN1` [Example 97, 4-{[(2R,5R)-1-(2-{6-[(4-Fluorophenyl)methyl]-3,3-dimethyl-1H,2H,3H-pyrrolo[3,2-b]pyridin-1-yl}-2-oxoethyl)-5-methylpiperazin-2-yl]methyl}-6,6-dimethylmopholin-3-one dihydrochloride], the pEC50 is 8.05.

The assay is the same for the next values; noted with them: Homo sapiens, EVSA-T, read-out: EC50 in EVSA-T cell line assays.
For the compound `C[C@@H]1CN(CC(=O)N2CC(C)(C)c3nnc(Cc4ccc(F)cc4F)cc32)[C@@H](CN2Cc3ccccc3C2=O)CN1` [Example 79, 2-{[(2R,5R)-1-(2-{3-[(2,4-Difluorophenyl)methyl]-7,7-dimethyl-5H,6H,7H-pyrrolo[3,2-c]pyridazin-5-yl}-2-oxoethyl)-5-methylpiperazin-2-yl]methyl}-2,3-dihydro-1H-isoindol-1-one dihydrochloride], the pEC50 is greater than 6.00.

Still in this assay, the particulars now being: Homo sapiens, EVSA-T; read-out: EC50 in EVSA-T cell line assays.
As for `CCCC(F)(F)c1cc2c(nn1)C(C)(C)CN2C(=O)CN1C[C@@H](C)NC[C@@H]1CN1CC(C)(C)CC1=O` [Example 55, 1-{[(2R,5R)-1-{2-[3-(1,1-Difluorobutyl)-7,7-dimethyl-5H,6H,7H-pyrrolo[3,2-c]pyridazin-5-yl]-2-oxoethyl}-5-methylpiperazin-2-yl]methyl}-4,4-dimethylpyrrolidin-2-one], the pEC50 is greater than 6.00.
On the same count and under the same terms, with `CCCC(F)(F)c1cc2c(nn1)C(C)(C)CN2C(=O)CN1C[C@@H](C)NC[C@@H]1CN1C[C@H](C)OCC1=O` [Example 57, (6S)-4-{[(2R,5R)-1-{2-[3-(1,1-Difluorobutyl)-7,7-dimethyl-5H,6H,7H-pyrrolo[3,2-c]pyridazin-5-yl]-2-oxoethyl}-5-methylpiperazin-2-yl]methyl}-6-methylmorpholin-3-one] the figure was greater than 6.00; with `CCCC(F)(F)c1cc2c(nn1)C(C)(C)CN2C(=O)CN1C[C@@H](C)NC[C@@H]1CN1C(=O)CO[C@@H](C)[C@H]1C` [Example 58, (5R,6S)-4-{[(2R,5R)-1-{2-[3-(1,1-Difluorobutyl)-7,7-dimethyl-5H,6H,7H-pyrrolo[3,2-]pyridazin-5-yl]-2-oxoethyl}-5-methylpiperazin-2-yl]methyl}-5,6-dimethylmorpholin-3-one], greater than 6.00; with `C[C@@H]1CN(CC(=O)N2CC(C)(C)c3ncc(Cc4ccc(F)cc4F)cc32)[C@@H](CN2Cc3ncccc3C2=O)CN1` [Example 62, 6-{[(2R,5R)-1-(2-{6-[(2,4-Difluorophenyl)methyl]-3,3-dimethyl-1H,2H,3H-pyrrolo[3,2-b]pyridin-1-yl}-2-oxoethyl)-5-methylpiperazin-2-yl]methyl}-5H,6H,7H-pyrrolo[3,4-b]pyridin-5-one], greater than 6.00.
Regarding `C[C@@H]1CN(CC(=O)N2CC(C)(C)c3cnc(Cc4ccc(F)cc4F)cc32)[C@@H](CN2Cc3ncccc3C2=O)CN1` [Example 63, 6-{[(2R,5R)-1-(2-{6-[(2,4-Difluorophenyl)methyl]-3,3-dimethyl-1H,2H,3H-pyrrolo[3,2-c]pyridin-1-yl}-2-oxoethyl)-5-methylpiperazin-2-yl]methyl}-5H,6H,7H-pyrrolo[3,4-b]pyridin-5-one], the pEC50 was greater than 6.00.
As for `C[C@@H]1CN(CC(=O)N2CC(C)(C)c3nnc(Cc4ccc(F)cc4F)cc32)[C@@H](CN2Cc3ncccc3C2=O)CN1` [Example 64, 6-{[(2R,5R)-1-(2-{3-[(2,4-Difluorophenyl)methyl]-7,7-dimethyl-5H,6H,7H-pyrrolo[3,2-c]pyridazin-5-yl}-2-oxoethyl)-5-methylpiperazin-2-yl]methyl}-5H,6H,7H-pyrrolo[3,4-b]pyridin-5-one], the pEC50 was greater than 6.00.
Still for that read-out and setting: with `C[C@@H]1CN(CC(=O)N2CC(C)(C)c3nnc(Cc4ccc(F)cc4)cc32)[C@@H](CN2Cc3ncccc3C2=O)CN1` [Example 65, 6-{[(2R,5R)-1-(2-{3-[(4-Fluorophenyl)methyl]-7,7-dimethyl-5H,6H,7H-pyrrolo[3,2-c]pyridazin-5-yl}-2-oxoethyl)-5-methylpiperazin-2-yl]methyl}-5H,6H,7H-pyrrolo[3,4-b]pyridin-5-one] the figure was greater than 6.00; with `CCCC(F)(F)c1cnc2c(c1)N(C(=O)CN1C[C@@H](C)NC[C@@H]1CN1Cc3ncccc3C1=O)CC2(C)C` [Example 66, 6-{[(2R,5R)-1-{2-[6-(1,1-Difluorobutyl)-3,3-dimethyl-1H,2H,3H-pyrrolo[3,2-b]pyridin-1-yl]-2-oxoethyl}-5-methylpiperazin-2-yl]methyl}-5H,6H,7H-pyrrolo[3,4-b]pyridin-5-one], greater than 6.00.
On to `CCCC(F)(F)c1cc2c(nn1)C(C)(C)CN2C(=O)CN1C[C@@H](C)NC[C@@H]1CN1Cc2ncccc2C1=O` [Example 67, 6-{[(2R,5R)-1-{2-[3-(1,1-Difluorobutyl)-7,7-dimethyl-5H,6H,7H-pyrrolo[3,2-c]pyridazin-5-yl]-2-oxoethyl}-5-methylpiperazin-2-yl]methyl}-5H,6H,7H-pyrrolo[3,4-b]pyridin-5-one], for which the pEC50 is greater than 6.00.
Turning to `C[C@@H]1CN(CC(=O)N2CC(C)(C)c3ncc(Cc4ccc(F)cc4)cc32)[C@@H](CN2CC(C)(C)OCC2=O)CN1` [Example 97, 4-{[(2R,5R)-1-(2-{6-[(4-Fluorophenyl)methyl]-3,3-dimethyl-1H,2H,3H-pyrrolo[3,2-b]pyridin-1-yl}-2-oxoethyl)-5-methylpiperazin-2-yl]methyl}-6,6-dimethylmopholin-3-one dihydrochloride], the pEC50 is greater than 6.00.

The same assay, now with this note: Homo sapiens; EVSA-T cell line, 72 hours, Alamar Blue; read-out: EVSA-T prolif.
For the compound `C[C@@H]1CN(CC(=O)N2CC(C)(C)c3nnc(Cc4ccc(F)cc4)cc32)[C@@H](CN2Cc3ccccc3C2=O)CN1` [Example 61, 2-{[(2R,5R)-1-(2-{3-[(4-Fluorophenyl)methyl]-7,7-dimethyl-5H,6H,7H-pyrrolo[3,2-c]pyridazin-5-yl}-2-oxoethyl)-5-methylpiperazin-2-yl]methyl}-2,3-dihydro-1H-isoindol-1-one dihydrochloride], the pEC50 is 8.82.
`C[C@@H]1CN(CC(=O)N2CC(C)(C)c3ncc(Cc4ccc(F)cc4F)cc32)[C@@H](CN2Cc3ccccc3C2=O)CN1` [Example 76, 2-{[(2R,5R)-1-(2-{6-[(2,4-Difluorophenyl)methyl]-3,3-dimethyl-1H,2H,3H-pyrrolo[3,2-b]pyridin-1-yl}-2-oxoethyl)-5-methylpiperazin-2-yl]methyl}-2,3-dihydro-1H-isoindol-1-one dihydrochloride]: the pEC50 is 8.60.
Turning to `C[C@@H]1CN(CC(=O)N2CC(C)(C)c3nnc(Cc4ccc(F)cc4F)cc32)[C@@H](CN2Cc3ccccc3C2=O)CN1` [Example 79, 2-{[(2R,5R)-1-(2-{3-[(2,4-Difluorophenyl)methyl]-7,7-dimethyl-5H,6H,7H-pyrrolo[3,2-c]pyridazin-5-yl}-2-oxoethyl)-5-methylpiperazin-2-yl]methyl}-2,3-dihydro-1H-isoindol-1-one dihydrochloride], the pEC50 was 9.70.
Same read-out and setting: with `C[C@@H]1CN(CC(=O)N2CC(C)(C)c3nnc(Cc4ccc(F)cc4F)cc32)[C@@H](CN2Cc3ccc(F)cc3C2=O)CN1` [Example 93, 2-{[(2R,5R)-1-(2-{3-[(2,4-Difluorophenyl)methyl]-7,7-dimethyl-5H,6H,7H-pyrrolo[3,2-c]pyridazin-5-yl}-2-oxoethyl)-5-methylpiperazin-2-yl]methyl}-6-fluoro-2,3-dihydro-1H-isoindol-1-one dihydrochloride] the figure was 9.30; with `COc1ccc2c(c1)CN(C[C@H]1CN[C@H](C)CN1CC(=O)N1CC(C)(C)c3ncc(Cc4ccc(F)cc4)cc31)C2=O` [Example 94, 2-{[(2R,5R)-1-(2-{6-[(4-Fluorophenyl)methyl]-3,3-dimethyl-1H,2H,3H-pyrrolo[3,2-b]pyridin-1-yl}-2-oxoethyl)-5-methylpiperazin-2-yl]methyl}-5-methoxy-2,3-dihydro-1H-isoindol-1-one dihydrochloride], 8.32.
Regarding `C[C@@H]1CN(CC(=O)N2CC(C)(C)c3ncc(Cc4ccc(F)cc4)cc32)[C@@H](CN2Cc3cccnc3C2=O)CN1` [Example 95, 6-{[(2R,5R)-1-(2-{6-[(4-Fluorophenyl)methyl]-3,3-dimethyl-1H,2H,3H-pyrrolo[3,2-b]pyridin-1-yl}-2-oxoethyl)-5-methylpiperazin-2-yl]methyl}-5H,6H,7H-pyrrolo[3,4-b]pyridin-7-one dihydrochloride], the pEC50 is 9.15.
